From paper PMC2999880 (Neuropharmacology, 2009)
Read-outs that look alike come from different tables or passages of the source.

Columns and labels:
[1] = molecular target: α7 NNR binding sites in rat hippocampal preparations (Rattus norvegicus, UniProt Q05941); experiment: [3H]-methyllycaconitine competition binding to rat hippocampal membranes; details: 5 nM [3H]-methyllycaconitine, test compound up to 100 μM
[2] = molecular target: presynaptic naturally-expressed α4β2-containing nicotinic receptors (Rattus norvegicus, UniProt P09483+P12390); experiment: Nicotine-evoked [3H]-dopamine release from rat striatal synaptosomes; type: biochemical; details: read-out: DA Release IC50, 10 μM nicotine-evoked [3H]-dopamine release, mean (95% CI)
presynaptic naturally-expressed α4β2-containing nicotinic receptors, sequence (P09483 31-630): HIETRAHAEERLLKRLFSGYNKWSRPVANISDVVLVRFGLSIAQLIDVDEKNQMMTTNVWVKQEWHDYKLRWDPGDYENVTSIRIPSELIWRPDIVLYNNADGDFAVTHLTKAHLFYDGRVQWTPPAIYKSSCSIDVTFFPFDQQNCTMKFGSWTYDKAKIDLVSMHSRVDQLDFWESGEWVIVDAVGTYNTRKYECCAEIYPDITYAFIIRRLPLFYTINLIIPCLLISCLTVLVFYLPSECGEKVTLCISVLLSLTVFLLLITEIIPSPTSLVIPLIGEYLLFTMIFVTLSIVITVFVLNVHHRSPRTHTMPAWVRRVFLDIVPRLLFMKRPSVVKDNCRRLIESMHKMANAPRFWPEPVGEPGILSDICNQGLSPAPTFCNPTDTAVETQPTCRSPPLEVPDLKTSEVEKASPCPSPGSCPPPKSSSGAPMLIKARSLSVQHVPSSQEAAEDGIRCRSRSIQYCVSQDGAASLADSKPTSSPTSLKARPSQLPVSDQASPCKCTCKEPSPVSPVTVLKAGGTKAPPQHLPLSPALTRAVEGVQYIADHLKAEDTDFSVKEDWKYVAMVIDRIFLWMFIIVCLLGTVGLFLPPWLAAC
presynaptic naturally-expressed α4β2-containing nicotinic receptors, sequence (P12390 25-500): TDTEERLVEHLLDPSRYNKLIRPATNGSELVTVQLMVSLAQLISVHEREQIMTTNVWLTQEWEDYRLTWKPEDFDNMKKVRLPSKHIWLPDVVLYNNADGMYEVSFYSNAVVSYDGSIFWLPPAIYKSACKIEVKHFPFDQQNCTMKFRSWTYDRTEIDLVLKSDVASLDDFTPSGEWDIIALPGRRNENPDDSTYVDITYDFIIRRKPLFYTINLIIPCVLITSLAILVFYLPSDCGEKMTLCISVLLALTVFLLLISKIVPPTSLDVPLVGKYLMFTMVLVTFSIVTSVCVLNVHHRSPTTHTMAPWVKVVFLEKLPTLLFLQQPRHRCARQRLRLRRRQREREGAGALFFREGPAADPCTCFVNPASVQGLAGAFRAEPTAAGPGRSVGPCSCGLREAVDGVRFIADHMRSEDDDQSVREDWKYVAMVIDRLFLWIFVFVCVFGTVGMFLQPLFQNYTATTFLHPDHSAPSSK

[3] = molecular target: α7 NNRs (Rattus norvegicus, UniProt Q05941); experiment: Epibatidine-evoked [3H]-norepinephrine release from rat hippocampal slices; type: cell-based
α7 NNRs, sequence (Q05941 23-502): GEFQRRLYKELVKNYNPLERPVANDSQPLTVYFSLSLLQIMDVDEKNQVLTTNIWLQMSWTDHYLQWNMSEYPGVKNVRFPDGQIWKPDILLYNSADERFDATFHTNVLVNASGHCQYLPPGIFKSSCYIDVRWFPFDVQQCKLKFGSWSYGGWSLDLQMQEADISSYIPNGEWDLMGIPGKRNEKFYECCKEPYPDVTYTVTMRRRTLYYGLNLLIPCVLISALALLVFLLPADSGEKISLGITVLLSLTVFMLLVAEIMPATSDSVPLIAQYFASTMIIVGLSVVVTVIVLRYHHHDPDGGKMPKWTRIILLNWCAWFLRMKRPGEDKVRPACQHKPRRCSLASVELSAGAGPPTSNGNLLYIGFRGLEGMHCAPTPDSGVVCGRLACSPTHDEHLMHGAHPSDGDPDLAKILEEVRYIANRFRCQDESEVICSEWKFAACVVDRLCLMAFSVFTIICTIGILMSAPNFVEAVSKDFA

[4] = molecular target: rat α7 NNRs (Rattus norvegicus, UniProt Q05941); experiment: ACh-evoked currents; type: cell-based; details: for pseudo-Hill slope (nH): variable slope sigmoid fit of inhibition of 60 μM ACh-evoked currents
rat α7 NNRs, sequence (Q05941 23-502): as above

[5] = clinical studies, human plasma, cited from earlier work
[6] = molecular target: recombinant α4β2 NNRs expressed in SH-EP1 cells (Homo sapiens, UniProt P17787+P43681); experiment: [3H]-nicotine binding to recombinant α4β2 NNRs in SH-EP1 cell membranes; details: 5 nM [3H]-nicotine, test compound up to 100 μM
recombinant α4β2 NNRs expressed in SH-EP1 cells, sequence (P43681 29-627 limits assumed): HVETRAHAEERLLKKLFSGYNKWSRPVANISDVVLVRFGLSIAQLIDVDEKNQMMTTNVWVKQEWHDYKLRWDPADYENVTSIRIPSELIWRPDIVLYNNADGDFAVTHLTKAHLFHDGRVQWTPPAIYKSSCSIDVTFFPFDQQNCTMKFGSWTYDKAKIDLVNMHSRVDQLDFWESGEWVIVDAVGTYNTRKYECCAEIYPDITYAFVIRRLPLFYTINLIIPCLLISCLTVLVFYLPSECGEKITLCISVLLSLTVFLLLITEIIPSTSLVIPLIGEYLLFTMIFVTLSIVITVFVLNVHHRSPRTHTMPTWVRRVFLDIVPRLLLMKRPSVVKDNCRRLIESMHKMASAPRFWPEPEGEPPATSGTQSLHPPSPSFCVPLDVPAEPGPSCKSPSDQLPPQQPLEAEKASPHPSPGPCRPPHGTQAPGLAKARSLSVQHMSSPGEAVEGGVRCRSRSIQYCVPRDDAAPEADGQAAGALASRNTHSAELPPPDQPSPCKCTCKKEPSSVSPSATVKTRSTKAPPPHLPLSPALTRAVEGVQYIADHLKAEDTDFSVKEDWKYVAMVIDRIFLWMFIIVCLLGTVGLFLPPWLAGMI
recombinant α4β2 NNRs expressed in SH-EP1 cells, sequence (P17787 26-502): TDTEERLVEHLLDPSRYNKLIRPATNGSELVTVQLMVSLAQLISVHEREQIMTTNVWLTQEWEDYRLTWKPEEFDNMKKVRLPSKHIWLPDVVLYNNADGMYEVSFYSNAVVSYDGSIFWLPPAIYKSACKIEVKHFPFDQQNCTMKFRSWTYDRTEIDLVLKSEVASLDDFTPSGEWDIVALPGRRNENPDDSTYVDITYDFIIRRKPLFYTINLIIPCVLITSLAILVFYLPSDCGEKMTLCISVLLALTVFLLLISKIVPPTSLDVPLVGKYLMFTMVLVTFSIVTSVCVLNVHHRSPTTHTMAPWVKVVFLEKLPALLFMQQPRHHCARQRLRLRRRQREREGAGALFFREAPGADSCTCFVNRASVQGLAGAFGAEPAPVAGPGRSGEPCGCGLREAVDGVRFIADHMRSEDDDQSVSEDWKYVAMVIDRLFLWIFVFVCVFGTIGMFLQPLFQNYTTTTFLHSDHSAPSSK

[7] = Maximum plasma concentrations achieved in clinical studies; type: in vivo, human; details: calculated from reported ng/mL and molecular weight
[8] = molecular target: α4β2 nicotinic receptors stably transfected in SH-EP1 cells (Homo sapiens, UniProt P17787+P43681); experiment: 86Rb+ efflux in α4β2/SH-EP1 cells; type: cell-based; details: for extent of inhibition of nicotine-evoked 86Rb+ efflux: 10 μM nicotine; for extent of inhibition of TC-1827-evoked 86Rb+ efflux: 100 μM TC-1827; for effect on basal 86Rb+ efflux: compound alone, no agonist (data not shown)
α4β2 nicotinic receptors stably transfected in SH-EP1 cells, sequence (P43681 29-627 limits assumed): as the sequence (P43681 29-627 limits assumed) above
α4β2 nicotinic receptors stably transfected in SH-EP1 cells, sequence (P17787 26-502): as the sequence (P17787 26-502) above

α7 NNR binding sites in rat hippocampal preparations, sequence (Q05941 23-502): as the sequence (Q05941 23-502) above

Structure (SMILES) | inhibition of [3H]-methyllycaconitine binding [1] | IC50 [2] [µM] | IC50 [3] [µM] | IC50 [4] [µM] | pseudo-Hill slope (nH) [4] | inhibition of [3H]-nicotine binding [6] | Max. Plasma Levels ([5]; ref Dumortier et al., 1998) [ng/mL] | Max. Plasma Levels ([5]; ref Wong et al., 2006) [ng/mL] | extent of inhibition of nicotine-evoked 86Rb+ efflux [8] | extent of inhibition of TC-1827-evoked 86Rb+ efflux [8] | effect on basal 86Rb+ efflux [8] | Max. Plasma Levels ([7]; ref Dumortier et al., 1998) [µM] | Max. Plasma Levels ([7]; ref Wong et al., 2006) [µM] | further results
CN(C)CCCN1c2ccccc2Sc2ccc(Cl)cc21 [Chlorpromazine, chlorpromazine] | None of the compounds tested inhibited binding | 2.8 | 1.7 | 9.1 | −0.84 | None of the compounds tested inhibited binding |  |  |  |  |  |  |  | Max. Plasma Levels ([5]; ref Chetty and Miller, 2001): 839 ng/mL; Max. Plasma Levels ([5]; ref Chetty et al., 1996): 422 ng/mL; Max. Plasma Levels ([5]; ref Della Corte et al., 1993): 124 ng/mL; Max. Plasma Levels ([7]; ref Chetty and Miller, 2001): 2.4 µM; Max. Plasma Levels ([7]; ref Chetty et al., 1996): 1.2 µM
CN1CCN(C2=Nc3cc(Cl)ccc3Nc3ccccc32)CC1 [Clozapine, clozapine] |  |  |  |  |  | None of the compounds tested inhibited binding | 1310 | 1920 | completely inhibited | fully inhibited | None of these compounds affected the basal | 4.0 | 5.9 | Max. Plasma Levels ([5]; ref Diaz et al., 2005): 574 ng/mL; Max. Plasma Levels ([5]; ref Freudenreich et al., 1996): 880 ng/mL; Max. Plasma Levels ([5]; ref Perry et al., 1991): 1088 ng/mL; Max. Plasma Levels ([7]; ref Diaz et al., 2005): 1.8 µM; Max. Plasma Levels ([7]; ref Perry et al., 1991): 3.3 µM
O=C(CCCN1CCC(O)(c2ccc(Cl)cc2)CC1)c1ccc(F)cc1 [Haloperidol, haloperidol] |  |  |  |  |  | None of the compounds tested inhibited binding |  |  | completely inhibited |  | None of these compounds affected the basal |  |  | Max. Plasma Levels ([5]; ref Roh et al., 2001): 86 ng/mL; Max. Plasma Levels ([7]; ref Roh et al., 2001): 0.23 µM
Clc1ccc2c(c1)N=C(N1CCNCC1)c1ccccc1N2 [N-desmethylclozapine] | None of the compounds tested inhibited binding | 2.1 | 2.2 | 3.2 | −1.3 | None of the compounds tested inhibited binding | 580 | 720 | completely inhibited | fully inhibited | None of these compounds affected the basal | 1.9 | 2.3 | activity at 6 µM ([4]; read-out: maximal ACh net charge response in the presence of inhibitor): 37.5 ± 5%; Max. Plasma Levels ([5]; ref Flanagan et al., 2003): 420 ng/mL; IC50 [8]: 2.1 µM; Max. Plasma Levels ([7]; ref Flanagan et al., 2003): 1.3 µM
OCCOCCN1CCN(C2=Nc3ccccc3Sc3ccccc32)CC1 [Quetiapine, quetiapine] |  |  |  |  |  |  |  |  |  |  |  |  |  | Max. Plasma Levels ([5]; ref Aichhorn et al., 2006): 491 ng/mL; Max. Plasma Levels ([5]; ref Grimm et al., 2006): 1042 ng/mL; Max. Plasma Levels ([5]; ref Lin et al., 2004): 91 ng/mL; Max. Plasma Levels ([5]; ref Tauscher-Wisniewski et al., 2002): 1454 ng/mL; Max. Plasma Levels ([7]; ref Aichhorn et al., 2006): 1.3 µM; Max. Plasma Levels ([7]; ref Grimm et al., 2006): 2.7 µM; Max. Plasma Levels ([7]; ref Lin et al., 2004): 0.24 µM
